The subject of test [1] is GDF8 signaling (GDF pSMAD, MPC11). The test can be described thus: AlphaScreen SureFire SMAD3 (p-Ser423/425) assay, inhibition of GDF8 signaling. Format: cell-based. The settings on record: Mus musculus, MPC-11, inhibition of GDF8 signaling, p-SMAD3 readout.
The test system of test [2] is TGF-β signaling (TGF-β pSMAD, MPC-11). The test can be described thus: AlphaScreen SureFire SMAD3 (p-Ser423/425) assay, inhibition of TGF-β signaling. Format: cell-based. The settings on record: Mus musculus, MPC-11, inhibition of TGF-β signaling, p-SMAD3 readout. In general terms: Bead proximity is the source of the signal in Alpha formats.

Usually IC50 stands for the concentration at which inhibition is half-maximal. A lower IC50 goes with greater potency. On to `Cn1cnc(-c2ccc(F)c(F)c2)c1-c1ccc2[nH]ncc2c1` [Compound 64, 5-(4-(3,4-Difluorophenyl)-1-methyl-1H-imidazol-5-yl)-1H-indazole], for which the IC50 came out at 90 nM in test [1] and 270 nM in test [2].
For `Cn1cnc(-c2ccc(F)c(F)c2)c1-c1ccc2ncn(C)c2c1` [Compound 66, 6-(4-(3,4-Difluorophenyl)-1-methyl-1H-imidazol-5-yl)-1-methyl-1H-benzo[d]imidazole], in that order: 520 nM and 980 nM.
For `Cn1cnc(-c2ccc(F)c(F)c2)c1-c1ccc2ncsc2c1` [Compound 67, 6-(4-(3,4-Difluorophenyl)-1-methyl-1H-imidazol-5-yl)benzo[d]thiazole], in that order: 580 nM and 1680 nM.
For `Cn1cnc(-c2ccc(F)c(F)c2)c1-c1ccc2nccnc2c1` [Compound 68, 6-(4-(3,4-Difluorophenyl)-1-methyl-1H-imidazol-5-yl)quinoxaline], the IC50 in test [1] was determined as 1050 nM; in test [2], 2870 nM.
Take `COc1ccc(-c2ncn(C)c2-c2ccc3[nH]ncc3c2)cc1` [Compound 69, 5-(4-(4-Methoxyphenyl)-1-methyl-1H-imidazol-5-yl)-1H-indazole]: the results for the IC50 in test [1] and in test [2] were 140 nM and 1770 nM, respectively.
For the compound `COc1ccc(-c2ncn(C)c2-c2ccc3cn[nH]c3c2)cc1` [Compound 70, 6-(4-(4-Methoxyphenyl)-1-methyl-1H-imidazol-5-yl)-1H-indazole], the results for the IC50 in test [1] and in test [2] were 700 nM and 5220 nM, respectively.
For `Cc1nc(-c2ccc(F)c(C)c2)c(-c2ccc3[nH]ncc3c2)[nH]1` [Compound 71, 5-(4-(4-Fluoro-3-methylphenyl)-2-methyl-1H-imidazol-5-yl)-1H-indazole], in that order: 90 nM and 800 nM.
As for `Cc1nc(-c2ccc(F)c(C)c2)c(-c2ccc3cn[nH]c3c2)[nH]1` [Compound 72, 6-(4-(4-Fluoro-3-methylphenyl)-2-methyl-1H-imidazol-5-yl)-1H-indazole], the values for the IC50 in test [1] and in test [2] were 100 nM and 970 nM, respectively.
For `Cc1nc(-c2ccc(F)c(C)c2)c(-c2ccc3ncsc3c2)[nH]1` [Compound 73, 6-(4-(4-Fluoro-3-methylphenyl)-2-methyl-1H-imidazol-5-yl)benzo[d]thiazole], in that order: 100 nM and 950 nM.
For the compound `Cc1nc(-c2ccc(F)c(C)c2)c(-c2ccc3nccn3c2)[nH]1` [Compound 74, 6-(4-(4-Fluoro-3-methylphenyl)-2-methyl-1H-imidazol-5-yl)imidazo[1,2-a]pyridine], the IC50 came to 200 nM in test [1] and 1410 nM in test [2].
For `Cc1nc(-c2ccc(F)c(C)c2)c(-c2ccc3ncccc3c2)[nH]1` [Compound 75, 6-(4-(4-Fluoro-3-methylphenyl)-2-methyl-1H-imidazol-5-yl)quinoline], in that order: 510 nM and 4390 nM.
For `Cc1nc(-c2ccc(F)c(C)c2)c(-c2ccc3nccnc3c2)[nH]1` [Compound 76, 6-(4-(4-Fluoro-3-methylphenyl)-2-methyl-1H-imidazol-5-yl)quinoxaline], in that order: 190 nM and 1210 nM.
For `Cc1nc(-c2ccc(F)cc2)c(-c2ccc3[nH]ncc3c2)[nH]1` [Compound 77, 5-(4-(4-Fluorophenyl)-2-methyl-1H-imidazol-5-yl)-1H-indazole], in that order: 220 nM and 1430 nM.
For the compound `Cc1nc(-c2ccc(F)cc2)c(-c2ccc3cn[nH]c3c2)[nH]1` [Compound 78, 6-(4-(4-Fluorophenyl)-2-methyl-1H-imidazol-5-yl)-1H-indazole], the results for the IC50 in test [1] and in test [2] were 290 nM and 2470 nM, respectively.
As to `Cc1nc(-c2ccc(F)cc2)c(-c2ccc3ncn(C)c3c2)[nH]1` [Compound 79, 6-(4-(4-Fluorophenyl)-2-methyl-1H-imidazol-5-yl)-1-methyl-1H-benzo[d]imidazole], the IC50 is 110 nM in test [1] and 850 nM in test [2].
For `Cc1nc(-c2ccc(F)cc2)c(-c2ccc3ncsc3c2)[nH]1` [Compound 80, 6-(4-(4-Fluorophenyl)-2-methyl-1H-imidazol-5-yl)benzo[d]thiazole], in that order: 220 nM and 1630 nM.
For `Cc1nc(-c2ccc(F)cc2)c(-c2ccc3nccn3c2)[nH]1` [Compound 81, 6-(4-(4-Fluorophenyl)-2-methyl-1H-imidazol-5-yl)imidazo[1,2-a]pyridine], in that order: 390 nM and 2620 nM.
For `Cc1nc(-c2ccc(F)cc2)c(-c2ccc3nccnc3c2)[nH]1` [Compound 82, 6-(4-(4-Fluorophenyl)-2-methyl-1H-imidazol-5-yl)quinoxaline], in that order: 480 nM and 3270 nM.
As to `Cc1nc(-c2ccc(F)c(F)c2)c(-c2ccc3[nH]ncc3c2)[nH]1` [Compound 83, 5-(4-(3,4-Difluorophenyl)-2-methyl-1H-imidazol-5-yl)-1H-indazole], the IC50 came out at 130 nM in test [1] and 1330 nM in test [2].
For `Cc1nc(-c2ccc(F)c(F)c2)c(-c2ccc3cn[nH]c3c2)[nH]1` [Compound 84, 6-(4-(3,4-Difluorophenyl)-2-methyl-1H-imidazol-5-yl)-1H-indazole], in that order: 320 nM and 2900 nM.
For `Cc1nc(-c2ccc(F)c(F)c2)c(-c2ccc3ncn(C)c3c2)[nH]1` [Compound 85, 6-(4-(3,4-Difluorophenyl)-2-methyl-1H-imidazol-5-yl)-1-methyl-1H-benzo[d]imidazole], in that order: 180 nM and 670 nM.
For `Cc1nc(-c2ccc(F)c(F)c2)c(-c2ccc3ncsc3c2)[nH]1` [Compound 86, 6-(4-(3,4-Difluorophenyl)-2-methyl-1H-imidazol-5-yl)benzo[d]thiazole], in that order: 220 nM and 1280 nM.
For the compound `Cc1nc(-c2ccc(F)c(F)c2)c(-c2ccc3nccn3c2)[nH]1` [Compound 87, 6-(4-(3,4-Difluorophenyl)-2-methyl-1H-imidazol-5-yl)imidazo[1,2-a]pyridine], the IC50 is 330 nM in test [1] and 3460 nM in test [2].
For the compound `Cc1nc(-c2ccc(F)c(F)c2)c(-c2ccc3ncccc3c2)[nH]1` [Compound 88, 6-(4-(3,4-Difluorophenyl)-2-methyl-1H-imidazol-5-yl)quinoline], the IC50 was 1020 nM in test [1] and 11500 nM in test [2].
`Cc1nc(-c2ccc(F)c(F)c2)c(-c2ccc3nccnc3c2)[nH]1` [Compound 89, 6-(4-(3,4-Difluorophenyl)-2-methyl-1H-imidazol-5-yl)quinoxaline]: the IC50 was 430 nM in test [1] and 4190 nM in test [2].
For `Cc1nc(-c2cc(F)c(F)c(F)c2)c(-c2ccc3[nH]ncc3c2)[nH]1` [Compound 90, 5-(2-Methyl-4-(3,4,5-trifluorophenyl)-1H-imidazol-5-yl)-1H-indazole], in that order: 630 nM and 3560 nM.
For `Cc1nc(-c2cc(F)c(F)c(F)c2)c(-c2ccc3cn[nH]c3c2)[nH]1` [Compound 91, 6-(2-Methyl-4-(3,4,5-trifluorophenyl)-1H-imidazol-5-yl)-1H-indazole], in that order: 390 nM and 2230 nM.
For `Cc1nc(-c2cc(F)c(F)c(F)c2)c(-c2ccc3ncnn3c2)[nH]1` [Compound 92, 6-(2-Methyl-4-(3,4,5-trifluorophenyl)-1H-imidazol-5-yl)-[1,2,4]triazolo[1,5-a]pyridine], in that order: 470 nM and 2270 nM.
On to `Cc1nc(-c2cc(F)c(F)c(F)c2)c(-c2ccc3ncsc3c2)[nH]1` [Compound 93, 6-(2-Methyl-4-(3,4,5-trifluorophenyl)-1H-imidazol-5-yl)benzo[d]thiazole], for which the figures for the IC50 in test [1] and in test [2] were 300 nM and 2340 nM, respectively.
Regarding `Cc1nc(-c2cc(F)c(F)c(F)c2)c(-c2ccc3nccn3c2)[nH]1` [Compound 94, 6-(2-Methyl-4-(3,4,5-trifluorophenyl)-1H-imidazol-5-yl)imidazo[1,2-a]pyridine], the IC50 in test [1] came to 580 nM; in test [2], 2910 nM.
For `Cc1nc(-c2cc(F)c(F)c(F)c2)c(-c2ccc3ncccc3c2)[nH]1` [Compound 95, 6-(2-Methyl-4-(3,4,5-trifluorophenyl)-1H-imidazol-5-yl)quinoline], in that order: 300 nM and 1880 nM.
For `Cc1nc(-c2cc(F)c(F)c(F)c2)c(-c2ccc3nccnc3c2)[nH]1` [Compound 96, 6-(2-Methyl-4-(3,4,5-trifluorophenyl)-1H-imidazol-5-yl)quinoxaline], in that order: 440 nM and 2430 nM.
As for `Cc1nc(-c2cc(F)c(F)cc2F)c(-c2ccc3[nH]ncc3c2)[nH]1` [Compound 97, 5-(2-Methyl-4-(2,4,5-trifluorophenyl)-1H-imidazol-5-yl)-1H-indazole], the values for the IC50 in test [1] and in test [2] were 100 nM and 540 nM, respectively.
For `Cc1nc(-c2cc(F)c(F)cc2F)c(-c2ccc3ncnn3c2)[nH]1` [Compound 98, 6-(2-Methyl-4-(2,4,5-trifluorophenyl)-1H-imidazol-5-yl)-[1,2,4]triazolo[1,5-a]pyridine], in that order: 50 nM and 190 nM.
For the compound `Cc1nc(-c2cc(F)c(F)cc2F)c(-c2ccc3ncsc3c2)[nH]1` [Compound 99, 6-(2-Methyl-4-(2,4,5-trifluorophenyl)-1H-imidazol-5-yl)benzo[d]thiazole], the results for the IC50 in test [1] and in test [2] were 40 nM and 240 nM, respectively.
For `Cc1nc(-c2cc(F)c(F)cc2F)c(-c2ccc3ncccc3c2)[nH]1` [Compound 100, 6-(2-Methyl-4-(2,4,5-trifluorophenyl)-1H-imidazol-5-yl)quinoline], in that order: 170 nM and 1370 nM.
For `Cc1nc(-c2cccc(Cl)c2)c(-c2ccc3[nH]ncc3c2)[nH]1` [Compound 101, 5-(4-(3-Chlorophenyl)-2-methyl-1H-imidazol-5-yl)-1H-indazole], in that order: 140 nM and 500 nM.

The values above are taken from patent US10287295B2, “TGF-β inhibitors” (Rigel Pharmaceuticals, Inc., priority 2015, dated 2019).
